This experiment concerns the target human NaV 1.8 (Homo sapiens, UniProt Q9Y5Y9). In words: E-VIPR assay for detecting and measuring NaV inhibition properties. It is filed as cell-based. As to conditions: E-VIPR assay conducted in the presence of human serum; HEK cells expressing truncated human NaV 1.8; read-out: IC50. The method, boiled down:
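Membrane-potential (coumarin/oxonol) readout after 10 s of 10 Hz biphasic electrical stimulation on E-VIPR. Compounds: 11-point 3-fold dilutions, […], 0.625% DMSO, 30 min at room temperature, human serum optional. Cells: HEK expressing truncated human NaV1.8 co-transduced with KIR2.1.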

Some results are limits rather than exact numbers.

For orientation: IC50 means the concentration needed to halve the response being measured.

human NaV 1.8, sequence (Q9Y5Y9 whole entry, looked up, the tested form may be a part): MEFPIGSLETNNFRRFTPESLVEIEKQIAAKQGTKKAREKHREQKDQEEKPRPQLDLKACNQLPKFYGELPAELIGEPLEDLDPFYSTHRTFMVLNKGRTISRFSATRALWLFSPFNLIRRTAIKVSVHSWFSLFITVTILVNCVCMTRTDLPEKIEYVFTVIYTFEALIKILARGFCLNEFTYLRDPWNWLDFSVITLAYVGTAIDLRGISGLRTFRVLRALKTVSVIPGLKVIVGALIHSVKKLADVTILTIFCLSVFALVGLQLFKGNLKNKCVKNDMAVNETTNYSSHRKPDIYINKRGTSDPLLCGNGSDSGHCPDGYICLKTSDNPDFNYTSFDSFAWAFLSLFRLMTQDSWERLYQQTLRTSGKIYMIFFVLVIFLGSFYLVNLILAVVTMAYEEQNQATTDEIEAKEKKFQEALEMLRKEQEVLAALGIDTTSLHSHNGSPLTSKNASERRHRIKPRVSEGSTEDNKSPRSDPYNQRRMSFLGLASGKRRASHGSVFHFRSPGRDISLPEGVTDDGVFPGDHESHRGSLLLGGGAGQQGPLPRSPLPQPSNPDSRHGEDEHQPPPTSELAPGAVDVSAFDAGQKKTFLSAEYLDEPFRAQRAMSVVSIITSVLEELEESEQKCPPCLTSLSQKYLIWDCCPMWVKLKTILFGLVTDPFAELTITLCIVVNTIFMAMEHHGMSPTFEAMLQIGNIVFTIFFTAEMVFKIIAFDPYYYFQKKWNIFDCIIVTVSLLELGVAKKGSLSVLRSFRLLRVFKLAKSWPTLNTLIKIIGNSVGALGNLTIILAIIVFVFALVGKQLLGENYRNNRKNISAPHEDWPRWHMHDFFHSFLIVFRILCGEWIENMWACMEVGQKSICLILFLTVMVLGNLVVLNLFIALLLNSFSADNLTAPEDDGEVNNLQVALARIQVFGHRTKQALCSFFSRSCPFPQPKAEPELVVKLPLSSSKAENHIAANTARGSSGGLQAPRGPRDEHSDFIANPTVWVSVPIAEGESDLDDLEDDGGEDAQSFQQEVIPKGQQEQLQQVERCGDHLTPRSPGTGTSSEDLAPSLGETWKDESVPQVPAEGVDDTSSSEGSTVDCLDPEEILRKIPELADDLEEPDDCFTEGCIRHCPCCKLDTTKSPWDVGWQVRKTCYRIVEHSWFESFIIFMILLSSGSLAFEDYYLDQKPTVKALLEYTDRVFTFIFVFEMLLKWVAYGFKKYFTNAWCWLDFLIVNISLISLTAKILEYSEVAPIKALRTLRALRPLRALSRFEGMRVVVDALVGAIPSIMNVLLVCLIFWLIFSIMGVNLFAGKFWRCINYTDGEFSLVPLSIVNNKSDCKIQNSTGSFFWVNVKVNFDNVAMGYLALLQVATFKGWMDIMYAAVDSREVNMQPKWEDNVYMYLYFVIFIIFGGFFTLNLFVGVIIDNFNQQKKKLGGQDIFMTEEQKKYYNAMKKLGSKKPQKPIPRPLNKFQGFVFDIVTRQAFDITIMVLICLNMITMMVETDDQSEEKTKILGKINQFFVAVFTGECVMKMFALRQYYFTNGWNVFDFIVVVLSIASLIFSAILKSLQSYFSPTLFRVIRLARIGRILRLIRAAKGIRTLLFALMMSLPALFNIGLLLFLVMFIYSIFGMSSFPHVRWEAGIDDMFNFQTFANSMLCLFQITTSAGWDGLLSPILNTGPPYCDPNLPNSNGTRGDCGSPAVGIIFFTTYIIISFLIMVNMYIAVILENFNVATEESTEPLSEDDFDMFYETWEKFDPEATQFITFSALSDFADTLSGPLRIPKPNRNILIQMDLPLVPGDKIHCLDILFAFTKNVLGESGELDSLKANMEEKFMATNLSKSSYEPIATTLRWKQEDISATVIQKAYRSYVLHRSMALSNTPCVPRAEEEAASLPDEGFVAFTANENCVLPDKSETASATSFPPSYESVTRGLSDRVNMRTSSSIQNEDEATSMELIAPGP

For `COc1ccc(Oc2ccc(C(F)(F)F)c(C)c2C(=O)Nc2ccc(C(N)=O)nc2)c(Cl)c1` [Compound 235, 5-[[6-(2-chloro-4-methoxy-phenoxy)-2-methyl-3-(trifluoromethyl)benzoyl]amino]pyridine-2-carboxamide], the IC50 worked out at 1400 nM.

Consider `CCOc1c(C(F)(F)F)ccc(Oc2ccc(OC(F)(F)F)cc2OC)c1C(=O)Nc1ccnc(C(N)=O)c1` [Compound 83, 4-[[2-ethoxy-6-[2-methoxy-4-(trifluoromethoxy)phenoxy]-3-(trifluoromethyl)benzoyl]amino]pyridine-2-carboxamide], for which the IC50 came to 160 nM.

For `Cc1c(C(F)(F)F)ccc(Oc2ccc(OC(F)(F)F)cc2F)c1C(=O)Nc1ccnc(C(N)=O)c1` [Compound 128, 4-[[6-[2-fluoro-4-(trifluoromethoxy)phenoxy]-2-methyl-3-(trifluoromethyl)benzoyl]amino]pyridine-2-carboxamide], the IC50 came to 83 nM.

Take `NC(=O)c1cc(NC(=O)c2c(Oc3c(F)cc(F)cc3F)ccc(C(F)(F)F)c2F)ccn1` [Compound 46, 4-[[2-fluoro-3-(trifluoromethyl)-6-(2,4,6-trifluorophenoxy)benzoyl]amino]pyridine-2-carboxamide]: the IC50 is above 3000 nM.

For `Cc1cc(Oc2cc(C(F)(F)F)ccc2C(=O)Nc2ccnc(C(N)=O)c2)ccc1F` [Compound 166, 4-[[2-(4-fluoro-3-methyl-phenoxy)-4-(trifluoromethyl)benzoyl]amino]pyridine-2-carboxamide], the IC50 was above 3000 nM.

For the molecule `CC(C)Oc1ccc(Oc2cccc(C(F)(F)F)c2C(=O)Nc2ccnc(C(N)=O)c2)cc1F` [Compound 74, 4-[[2-(3-fluoro-4-isopropoxy-phenoxy)-6-(trifluoromethyl)benzoyl]amino]pyridine-2-carboxamide], the IC50 came out at 1200 nM.

On to `[2H]C([2H])([2H])Oc1cc(OC(F)(F)F)ccc1Oc1cc(C#CC2CCC2)cc(F)c1C(=O)Nc1ccnc(C(N)=O)c1` [Compound 1024], for which the IC50 is 150 nM.

Turning to `COc1cc(Oc2ccc(OC(F)(F)F)c(F)c2OC)c(C(=O)Nc2ccnc(C(N)=O)c2)c(F)c1Cl` [Compound 324, 4-[[3-chloro-2-fluoro-6-[3-fluoro-2-methoxy-4-(trifluoromethoxy)phenoxy]-4-methoxy-benzoyl]amino]pyridine-2-carboxamide], the IC50 was 1.7 nM.

Regarding `COc1cc(F)ccc1Oc1cccc(C(F)(F)F)c1C(=O)Nc1ccnc(C(N)=O)c1` [Compound 75, 4-[[2-(4-fluoro-2-methoxy-phenoxy)-6-(trifluoromethyl)benzoyl]amino]pyridine-2-carboxamide], the IC50 amounted to 1750 nM.

Regarding `CCc1cc(C(F)(F)F)cc(Oc2ccc(OC(F)(F)F)cc2OC)c1C(=O)Nc1ccnc(C(N)=O)c1` [Compound 178, 4-[[2-ethyl-6-[2-methoxy-4-(trifluoromethoxy)phenoxy]-4-(trifluoromethyl)benzoyl]amino]pyridine-2-carboxamide], the IC50 came out at 27 nM.

Take `[2H]C([2H])([2H])Oc1cc(OC(F)(F)F)ccc1Oc1cc(C#CC(C)(C)C)cc(F)c1C(=O)Nc1ccnc(C(N)=O)c1` [Compound 1022]: the half-inhibitory concentration (IC50) was 190 nM.

Turning to `COc1c(Oc2ccc(C3CC3)c(C)c2C(=O)Nc2ccnc(C(N)=O)c2)ccc(OC(F)(F)F)c1F` [Compound 196, 4-[[3-cyclopropyl-6-[3-fluoro-2-methoxy-4-(trifluoromethoxy)phenoxy]-2-methyl-benzoyl]amino]pyridine-2-carboxamide], the IC50 stood at 9 nM.

As to `[2H]C([2H])([2H])Oc1cc(OC(F)(F)F)ccc1Oc1cc(C(F)(F)F)c(F)cc1C(=O)Nc1ccnc(C(N)=O)c1` [Compound 99, 4-[[5-fluoro-2-[2-(trideuteriomethoxy)-4-(trifluoromethoxy)phenoxy]-4-(trifluoromethyl)benzoyl]amino]pyridine-2-carboxamide], the IC50 turned out to be 380 nM.

On to `COc1cc(Oc2ccc(C(F)(F)F)cc2C(=O)Nc2ccnc(C(N)=O)c2)ccc1F` [Compound 16, 4-[[2-(4-fluoro-3-methoxy-phenoxy)-5-(trifluoromethyl)benzoyl]amino]pyridine-2-carboxamide], for which the IC50 is above 3000 nM.

Consider `Cc1c(Oc2ccc(C(F)(F)F)c(C)c2C(=O)Nc2ccnc(C(N)=O)c2)ccc(OC(F)(F)F)c1F` [Compound 290, 4-[[6-[3-Fluoro-2-Methyl-4-(Trifluoromethoxy)Phenoxy]-2-Methyl-3-(Trifluoromethyl)Benzoyl]Amino]Pyridine-2-Carboxamide], for which the IC50 stood at 9.9 nM.

`COc1cc(OC(F)(F)F)ccc1Oc1cc(OC)c(C(F)(F)F)c(F)c1C(=O)Nc1ccc(C(N)=O)nc1` [Compound 353, 5-[[2-fluoro-4-methoxy-6-[2-methoxy-4-(trifluoromethoxy)phenoxy]-3-(trifluoromethyl)benzoyl]amino]pyridine-2-carboxamide]: the IC50 worked out at 17.4 nM.

On to `COc1cc(OC(F)(F)F)ccc1Oc1ccc(OC2CC(F)(F)C2)c(C)c1C(=O)Nc1ccnc(C(N)=O)c1` [Compound 204, 4-[[3-(3,3-Difluorocyclobutoxy)-6-[2-Methoxy-4-(Trifluoromethoxy)Phenoxy]-2-Methyl-Benzoyl]Amino]Pyridine-2-Carboxamide], for which the IC50 is 170 nM.

Consider `CCOc1ccc(Oc2ccc(C(F)(F)F)c(F)c2C(=O)Nc2ccnc(C(N)=O)c2)cc1` [Compound 23, 4-[[6-(4-ethoxyphenoxy)-2-fluoro-3-(trifluoromethyl)benzoyl]amino]pyridine-2-carboxamide], for which the IC50 came to 150 nM.

In the case of `NC(=O)c1ccc(NC(=O)c2c(Oc3ccc(OC(F)(F)F)cc3C3CC3)ccc(C(F)(F)F)c2F)cn1` [Compound 206, 5-[[6-[2-cyclopropyl-4-(trifluoromethoxy)phenoxy]-2-fluoro-3-(trifluoromethyl)benzoyl]amino]pyridine-2-carboxamide], the IC50 was 360 nM.

As for `[2H]C([2H])([2H])Oc1cc(OC(F)(F)F)ccc1Oc1cc(-c2ccccc2)cc(F)c1C(=O)Nc1ccnc(C(N)=O)c1` [Compound 92, 4-[[2-fluoro-4-phenyl-6-[2-(trideuteriomethoxy)-4-(trifluoromethoxy)phenoxy]benzoyl]amino]pyridine-2-carboxamide], the IC50 was determined as 63 nM.

For the molecule `[2H]C([2H])([2H])Oc1cc(OC(F)(F)F)ccc1Oc1cc(C2=CCOC2)cc(F)c1C(=O)Nc1ccnc(C(N)=O)c1` [Compound 1004, 4-[[4-(2,5-dihydrofuran-3-yl)-2-fluoro-6-[2-(trideuteriomethoxy)-4-(trifluoromethoxy)phenoxy]benzoyl]amino]pyridine-2-carboxamide], the IC50 was determined as 29 nM.

On to `COc1cc(OC(F)(F)F)ccc1Oc1cc(C2=CCC3(CC2)OCCO3)cc(F)c1C(=O)Nc1ccnc(C(N)=O)c1` [Compound 1015, 4-[[4-(1,4-dioxaspiro[4.5]dec-7-en-8-yl)-2-fluoro-6-[2-methoxy-4-(trifluoromethoxy)phenoxy]benzoyl]amino]pyridine-2-carboxamide], for which the IC50 is 360 nM.

As to `COc1c(C(F)(F)F)ccc(Oc2ccc(OC(C)C)c(Cl)c2)c1C(=O)Nc1ccnc(C(N)=O)c1` [Compound 56, 4-[[6-(3-chloro-4-isopropoxy-phenoxy)-2-methoxy-3-(trifluoromethyl)benzoyl]amino]pyridine-2-carboxamide], the IC50 stood at 48 nM.

Regarding `COc1cc(F)ccc1-c1ccc(C(F)(F)F)cc1C(=O)Nc1ccnc(C(N)=O)c1` [Compound 252, 4-[[2-(4-fluoro-2-methoxy-phenyl)-5-(trifluoromethyl)benzoyl]amino]pyridine-2-carboxamide], the IC50 was above 3000 nM.

For `COc1cc(OC(F)(F)F)ccc1Oc1cc(C2=CCOC2)ccc1C(=O)Nc1ccnc(C(N)=O)c1` [Compound 1030], the IC50 is 330 nM.

In the case of `NC(=O)c1cc(NC(=O)c2ccc(C(F)(F)F)cc2Oc2ccc(F)c(Cl)c2)ccn1` [Compound 107, 4-[[2-(3-chloro-4-fluoro-phenoxy)-4-(trifluoromethyl)benzoyl]amino]pyridine-2-carboxamide], the IC50 is 2380 nM.

Turning to `CNC(=O)c1cc(NC(=O)c2c(Oc3ccc(F)c(F)c3OC)cc(OC)c(C(F)(F)F)c2NC)ccn1` [Compound 300, 4-[[6-(3,4-Difluoro-2-Methoxy-Phenoxy)-4-Methoxy-2-(Methylamino)-3-(Trifluoromethyl)Benzoyl]Amino]-N-Methyl-Pyridine-2-Carboxamide], the IC50 was 1400 nM.

For `Cc1cc(Cl)cc(C)c1Oc1ccc(C(F)(F)F)c(C)c1C(=O)Nc1ccc(C(N)=O)nc1` [Compound 229, 5-[[6-(4-chloro-2,6-dimethyl-phenoxy)-2-methyl-3-(trifluoromethyl)benzoyl]amino]pyridine-2-carboxamide], the IC50 was above 3000 nM.

Regarding `COc1cc(OC(F)(F)F)ccc1Oc1cc(C2CC2)c(F)c(C)c1C(=O)Nc1ccnc(C(N)=O)c1` [Compound 264, 4-[[4-cyclopropyl-3-fluoro-6-[2-methoxy-4-(trifluoromethoxy)phenoxy]-2-methyl-benzoyl]amino]pyridine-2-carboxamide], the IC50 was determined as 52 nM.

For `COc1c(C(F)(F)F)ccc(Oc2ccc(F)c(C)c2)c1C(=O)Nc1ccnc(C(N)=O)c1` [Compound 61, 4-[[6-(4-fluoro-3-methyl-phenoxy)-2-methoxy-3-(trifluoromethyl)benzoyl]amino]pyridine-2-carboxamide], the IC50 is 490 nM.

For the molecule `COc1cc(Oc2ccc(F)c(F)c2C)c(C(=O)Nc2ccnc(C(N)=O)c2)c(F)c1C(F)(F)F` [Compound 348, 4-[[6-(3,4-difluoro-2-methyl-phenoxy)-2-fluoro-4-methoxy-3-(trifluoromethyl)benzoyl]amino]pyridine-2-carboxamide], the IC50 amounted to 20 nM.

On to `CC(C)Oc1ccc(Oc2cccc(C(F)(F)F)c2C(=O)Nc2ccnc(C(N)=O)c2)c(F)c1F` [Compound 72, 4-[[2-(2,3-difluoro-4-isopropoxy-phenoxy)-6-(trifluoromethyl)benzoyl]amino]pyridine-2-carboxamide], for which the IC50 was 560 nM.
